Reference: ChEMBL document CHEMBL4765232 (J Med Chem, 2016)

Assays:
[1] = target: T1, Histone-lysine N-methyltransferase EZH2 (Homo sapiens, UniProt Q15910); assay: Inhibition of wild-type EZH2 in PRC2 complex (unknown origin) using RKQLATKAARK(Me3)SAPATGGVKKP-NH2 peptide substrate preincubated for 30 mins followed by addition of [3H]-SAM measured after 2 hrs by Topcount scintillation proximity assay
[2] = target: T1, Histone-lysine N-methyltransferase EZH2; assay: Inhibition of EZH2 in human HeLa cells assessed as inhibition of trimethylation of H3K27 after 72 hrs by AlphaLISA assay; type: cell-based
[3] = Protein binding in rat plasma assessed as bound fraction; type: ADME, cell-free; conditions: read-out: PPB (converted)
[4] = Oral bioavailability in Balb/c mouse at 100 mg/kg formulated in 0.5 % methyl cellulose maintained at pH 3; type: ADME, organism-based; conditions: in vivo, pH 3, 100 mg/kg
[5] = Cmax in Balb/c mouse at 100 mg/kg, po formulated in 0.5 % methyl cellulose maintained at pH 3; type: ADME, organism-based; set-up: route oral, dose 100 mg/kg; conditions: in vivo, pH 3, 100 mg/kg
[6] = Half life in Balb/c mouse plasma at 1 mg/kg, iv formulated with 5:25:70 DMA/PEG400/20% SBECD; type: ADME, organism-based
[7] = Clearance in Balb/c mouse at 1 mg/kg, iv formulated with 5:25:70 DMA/PEG400/20% SBECD relative to liver blood flow; type: ADME, organism-based; conditions: in vivo
[8] = Protein binding in dog plasma assessed as bound fraction; type: ADME, cell-free, Canis lupus familiaris; conditions: read-out: PPB (converted)
[9] = AUC (0 to infinity) in Balb/c mouse at 100 mg/kg, po formulated in 0.5 % methyl cellulose maintained at pH 3; type: ADME, organism-based; set-up: time infinity, route oral, dose 100 mg/kg; conditions: in vivo, pH 3, 100 mg/kg
[10] = Tmax in Balb/c mouse at 100 mg/kg, po formulated in 0.5 % methyl cellulose maintained at pH 3; type: ADME, organism-based; conditions: in vivo, pH 3, 100 mg/kg
[11] = Unbound clearance in Balb/c mouse at 1 mg/kg, iv formulated with 5:25:70 DMA/PEG400/20% SBECD; type: ADME, organism-based; conditions: in vivo
[12] = Fraction unbound in mouse plasma; type: ADME, cell-free
[13] = Volume of distribution at steady in Balb/c mouse at 1 mg/kg, iv formulated with 5:25:70 DMA/PEG400/20% SBECD; type: ADME, organism-based; conditions: in vivo, read-out: Vdss
[14] = target: CYP2C9 (Homo sapiens, UniProt P11712); assay: Inhibition of CYP2C9 (unknown origin) at 10 uM relative to control; type: ADME
[15] = Intrinsic clearance in rat liver microsomes assessed per mg protein; type: ADME, Microsome
[16] = Unbound Cmax in Balb/c mouse at 100 mg/kg, po formulated in 0.5 % methyl cellulose maintained at pH 3; type: ADME, organism-based; conditions: in vivo, pH 3, 100 mg/kg
[17] = Protein binding in mouse plasma assessed as bound fraction; type: ADME, cell-free; conditions: for fraction unbound: read-out: PPB (converted)
[18] = Protein binding in human plasma assessed as bound fraction; type: ADME, cell-free; conditions: read-out: PPB (converted)
[19] = target: CYP2D6 (Homo sapiens, UniProt P10635); assay: Inhibition of CYP2D6 (unknown origin) at 10 uM relative to control; type: ADME
[20] = target: CYP3A4 (Homo sapiens, UniProt P08684); assay: Inhibition of CYP3A4 (unknown origin) at 10 uM relative to control; type: ADME
[21] = Clearance in Balb/c mouse at 1 mg/kg, iv formulated with 5:25:70 DMA/PEG400/20% SBECD; type: ADME, organism-based; conditions: in vivo
[22] = Intrinsic clearance in dog liver microsomes assessed per mg protein; type: ADME, Canis lupus familiaris, Microsome
[23] = target: T2, CYP1A2 (Homo sapiens, UniProt P05177); assay: Inhibition of CYP1A2 (unknown origin) at 10 uM relative to control; type: ADME
T2 sequence (P05177 whole entry): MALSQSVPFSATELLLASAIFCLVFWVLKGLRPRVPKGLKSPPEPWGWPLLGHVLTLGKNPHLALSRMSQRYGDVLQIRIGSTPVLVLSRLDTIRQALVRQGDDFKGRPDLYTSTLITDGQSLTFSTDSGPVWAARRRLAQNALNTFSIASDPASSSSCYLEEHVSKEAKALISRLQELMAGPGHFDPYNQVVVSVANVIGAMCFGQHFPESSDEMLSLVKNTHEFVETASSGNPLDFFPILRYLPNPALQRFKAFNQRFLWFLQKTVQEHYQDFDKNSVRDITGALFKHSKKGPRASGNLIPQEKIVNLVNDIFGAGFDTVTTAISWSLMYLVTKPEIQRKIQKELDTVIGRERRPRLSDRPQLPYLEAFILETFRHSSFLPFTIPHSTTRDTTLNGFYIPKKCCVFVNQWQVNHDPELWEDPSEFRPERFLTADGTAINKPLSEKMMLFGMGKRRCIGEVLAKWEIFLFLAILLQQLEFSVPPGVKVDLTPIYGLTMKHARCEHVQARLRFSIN

[24] = Unbound AUC in Balb/c mouse at 100 mg/kg, po formulated in 0.5 % methyl cellulose maintained at pH 3; type: ADME, organism-based; conditions: in vivo, pH 3, 100 mg/kg
[25] = target: T3, CYP2C8 (Homo sapiens, UniProt P10632); assay: Inhibition of CYP2C8 (unknown origin) at 10 uM relative to control; type: ADME
T3 sequence (P10632 whole entry): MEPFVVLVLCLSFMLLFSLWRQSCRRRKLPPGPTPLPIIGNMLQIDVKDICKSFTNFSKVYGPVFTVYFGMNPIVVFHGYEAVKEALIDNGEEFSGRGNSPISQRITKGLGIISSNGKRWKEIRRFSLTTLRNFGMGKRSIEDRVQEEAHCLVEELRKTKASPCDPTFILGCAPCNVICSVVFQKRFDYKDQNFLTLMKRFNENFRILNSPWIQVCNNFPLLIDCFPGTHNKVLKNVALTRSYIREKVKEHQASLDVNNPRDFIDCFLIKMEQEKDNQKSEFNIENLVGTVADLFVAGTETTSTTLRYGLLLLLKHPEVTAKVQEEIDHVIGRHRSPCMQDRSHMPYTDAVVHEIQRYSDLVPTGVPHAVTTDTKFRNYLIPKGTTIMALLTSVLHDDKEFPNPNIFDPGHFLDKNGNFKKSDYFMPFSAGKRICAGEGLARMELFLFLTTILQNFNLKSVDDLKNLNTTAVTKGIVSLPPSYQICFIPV

[26] = Intrinsic clearance in mouse liver microsomes assessed per mg protein; type: ADME, Microsome
[27] = Intrinsic clearance in human liver microsomes assessed per mg protein; type: ADME, Microsome

T1 sequence (Q15910 whole entry): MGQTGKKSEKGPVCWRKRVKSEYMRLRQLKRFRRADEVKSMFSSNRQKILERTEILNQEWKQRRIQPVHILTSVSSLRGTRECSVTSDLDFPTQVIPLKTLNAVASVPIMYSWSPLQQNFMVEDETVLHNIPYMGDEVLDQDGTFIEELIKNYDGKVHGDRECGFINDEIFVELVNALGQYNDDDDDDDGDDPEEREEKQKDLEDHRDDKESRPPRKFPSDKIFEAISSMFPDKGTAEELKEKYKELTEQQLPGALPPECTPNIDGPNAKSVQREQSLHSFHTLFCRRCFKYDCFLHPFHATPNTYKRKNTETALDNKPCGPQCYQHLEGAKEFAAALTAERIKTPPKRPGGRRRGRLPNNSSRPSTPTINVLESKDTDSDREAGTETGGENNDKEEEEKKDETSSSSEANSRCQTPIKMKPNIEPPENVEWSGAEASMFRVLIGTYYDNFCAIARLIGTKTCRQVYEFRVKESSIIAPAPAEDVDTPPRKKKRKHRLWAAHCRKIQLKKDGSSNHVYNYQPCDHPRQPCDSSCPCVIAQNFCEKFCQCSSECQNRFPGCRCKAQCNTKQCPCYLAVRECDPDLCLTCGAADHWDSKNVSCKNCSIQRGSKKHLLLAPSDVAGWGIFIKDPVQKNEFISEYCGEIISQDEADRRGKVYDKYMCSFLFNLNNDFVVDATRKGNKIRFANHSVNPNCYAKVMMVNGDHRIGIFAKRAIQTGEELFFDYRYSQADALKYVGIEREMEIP
Sequence of CYP2D6 (P10635 whole entry): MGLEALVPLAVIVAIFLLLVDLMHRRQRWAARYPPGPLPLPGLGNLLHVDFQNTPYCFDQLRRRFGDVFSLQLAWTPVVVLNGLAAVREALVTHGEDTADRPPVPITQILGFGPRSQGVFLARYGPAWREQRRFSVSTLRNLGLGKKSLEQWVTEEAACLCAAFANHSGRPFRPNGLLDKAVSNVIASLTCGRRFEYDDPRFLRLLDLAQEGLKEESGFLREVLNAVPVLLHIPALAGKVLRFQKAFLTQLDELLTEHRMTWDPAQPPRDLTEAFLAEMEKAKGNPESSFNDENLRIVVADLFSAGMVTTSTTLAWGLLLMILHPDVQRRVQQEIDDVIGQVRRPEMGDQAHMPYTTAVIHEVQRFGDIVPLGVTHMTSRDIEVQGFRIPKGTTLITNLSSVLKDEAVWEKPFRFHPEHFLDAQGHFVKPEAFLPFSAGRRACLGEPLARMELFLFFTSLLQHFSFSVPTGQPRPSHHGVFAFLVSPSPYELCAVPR
Sequence of CYP2C9 (P11712 whole entry): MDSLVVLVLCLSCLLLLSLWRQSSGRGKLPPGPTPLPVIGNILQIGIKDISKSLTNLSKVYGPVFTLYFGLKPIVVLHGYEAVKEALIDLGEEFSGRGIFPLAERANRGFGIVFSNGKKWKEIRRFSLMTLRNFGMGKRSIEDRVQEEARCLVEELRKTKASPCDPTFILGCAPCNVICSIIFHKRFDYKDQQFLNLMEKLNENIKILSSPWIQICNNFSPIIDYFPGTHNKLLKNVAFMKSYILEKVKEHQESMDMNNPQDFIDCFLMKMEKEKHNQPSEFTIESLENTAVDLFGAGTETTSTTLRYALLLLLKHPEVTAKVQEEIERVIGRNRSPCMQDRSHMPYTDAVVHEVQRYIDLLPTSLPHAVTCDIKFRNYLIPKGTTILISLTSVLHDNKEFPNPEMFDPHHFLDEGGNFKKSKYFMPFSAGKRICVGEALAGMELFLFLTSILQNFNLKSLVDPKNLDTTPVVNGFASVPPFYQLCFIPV
Sequence of CYP3A4 (P08684 whole entry): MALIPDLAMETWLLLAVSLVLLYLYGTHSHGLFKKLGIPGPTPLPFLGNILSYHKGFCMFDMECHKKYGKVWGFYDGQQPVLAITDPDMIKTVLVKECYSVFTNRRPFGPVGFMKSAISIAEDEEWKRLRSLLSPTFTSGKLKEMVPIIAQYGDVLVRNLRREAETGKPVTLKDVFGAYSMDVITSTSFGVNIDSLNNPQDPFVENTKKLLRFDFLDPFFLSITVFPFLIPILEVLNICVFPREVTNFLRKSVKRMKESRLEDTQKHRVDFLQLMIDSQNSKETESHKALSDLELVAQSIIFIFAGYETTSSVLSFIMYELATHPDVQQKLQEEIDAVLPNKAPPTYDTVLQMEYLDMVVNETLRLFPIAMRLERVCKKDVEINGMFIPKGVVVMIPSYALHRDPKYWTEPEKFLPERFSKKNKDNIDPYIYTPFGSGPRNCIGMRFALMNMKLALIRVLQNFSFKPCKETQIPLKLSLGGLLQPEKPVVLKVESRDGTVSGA

COc1cc(C)[nH]c(=O)c1CNC(=O)c1c(C)n([C@H](C)C2CCN(C(=O)N(C)C)CC2)c2ccccc12
IC50 [1]: 3.3 nM
EC50 [2]: 930 nM

COc1cc(C)[nH]c(=O)c1CNC(=O)c1c(C)n([C@H](C)C2CCN(CC(F)F)CC2)c2ccccc12
fraction unbound [3]: 0.169
F [4]: 91.6%
IC50 [1]: 1.8 nM
Cmax [5]: 52.1 µM
half-life [6]: 24.1 min
CL [7]: 82%
fraction unbound [8]: 0.357
AUC [9]: 42.01 µM·h
Tmax [10]: 15 min
CL free [11]: 3372 mL/min/kg
Fu [12]: 0.022%
Vd [13]: 1.1 L/kg
inhibition at 10 µM [14]: 25.4%
CLH [15]: 71.3 µL/min
fCmax [16]: 1.15 µM
PPB [17]: 97.8%
fraction unbound [18]: 0.167
EC50 [2]: 39 nM
inhibition at 10 µM [19]: 26.1%
inhibition at 10 µM [20]: 25.2%
clearance [21]: 74.2 mL/min/kg
CLH [22]: 52.4 µL/min
inhibition at 10 µM [23]: 28.6%
fAUC [24]: 0.924 µM·h
inhibition at 10 µM [25]: 18.9%
CLH [26]: 131 µL/min

COc1cc(C)[nH]c(=O)c1CNC(=O)c1c(C)n([C@H](C)C2CCN(CCC(F)(F)F)CC2)c2ccccc12
fraction unbound [3]: 0.026
IC50 [1]: 2.3 nM
fraction unbound [8]: 0.037
CLH [27]: 35.4 µL/min
inhibition at 10 µM [14]: 11.6%
CLH [15]: 25.7 µL/min
fraction unbound [17]: 0.003
fraction unbound [18]: 0.041
EC50 [2]: 290 nM
inhibition at 10 µM [19]: 17.2%
inhibition at 10 µM [20]: 5%
CLH [22]: 35.3 µL/min
inhibition at 10 µM [23]: 19.4%
inhibition at 10 µM [25]: 23.1%
CLH [26]: 61.3 µL/min

COc1cc(C)[nH]c(=O)c1CNC(=O)c1c(C)n([C@H](C)C2CCN(C(=O)OC(C)C)CC2)c2ccccc12
IC50 [1]: < 1 nM
EC50 [2]: 110 nM

COc1cc(C)[nH]c(=O)c1CNC(=O)c1c(C)n([C@H](C)C2CCNCC2)c2ccccc12
IC50 [1]: 2 nM
EC50 [2]: 1100 nM

COc1cc(C)[nH]c(=O)c1CNC(=O)c1c(C)n([C@H](C)C2CCN(C3COC3)CC2)c2ccccc12
IC50 [1]: < 1 nM
EC50 [2]: 150 nM

COc1cc(C)[nH]c(=O)c1CNC(=O)c1c(C)n([C@H](C)C2CCN(CC(C)(F)F)CC2)c2ccccc12
fraction unbound [3]: 0.076
IC50 [1]: < 1 nM
fraction unbound [8]: 0.064
CLH [27]: 83.8 µL/min
inhibition at 10 µM [14]: 5%
CLH [15]: 86.1 µL/min
fraction unbound [17]: 0.006
fraction unbound [18]: 0.053
EC50 [2]: 20 nM
inhibition at 10 µM [19]: 7.7%
inhibition at 10 µM [20]: 0%
CLH [22]: 68.9 µL/min
inhibition at 10 µM [23]: 0%
inhibition at 10 µM [25]: 50.9%
CLH [26]: 193 µL/min

CCOC(=O)CN1CCC([C@@H](C)n2c(C)c(C(=O)NCc3c(OC)cc(C)[nH]c3=O)c3ccccc32)CC1
IC50 [1]: < 1 nM
EC50 [2]: 260 nM

COc1cc(C)[nH]c(=O)c1CNC(=O)c1c(C)n([C@H](C)C2CCN(CC(F)(F)C(F)F)CC2)c2ccccc12
IC50 [1]: 1.6 nM
EC50 [2]: 38 nM

COc1cc(C)[nH]c(=O)c1CNC(=O)c1c(C)n([C@H](C)C2CCN(C)CC2)c2ccccc12
IC50 [1]: < 1 nM
EC50 [2]: 470 nM

COc1cc(C)[nH]c(=O)c1CNC(=O)c1c(C)n([C@H](C)C2CCN(C(=O)C(C)C)CC2)c2ccccc12
IC50 [1]: 2.5 nM
EC50 [2]: 420 nM
